Reference: patent US4554275A, “Triazine derivatives” (Nippon Shinyaku Co., Ltd., priority 1982, dated 1985)

How the values were obtained:
[1] = system: Carrageenin Edema; test: Carrageenin edema inhibitory action (rat hind paw swelling); format: in vivo, male rats (SLC-SD strain); conditions: po, 3 h, 400 mg/kg orally, one hour before 0.1 ml of 0.5% carrageenin into right hind paw, measured three hours later, vs control group, read-out: Carrageenin Edema Inhibitory Rate (%)
Description: Five male rats (SLC-SD strain, five weeks age, supplied by Seidokyo) were used in one group in the experiment. Drugs to be tested were given orally at a dose of 400 mg/kg and, one hour later, 0.1 ml of 0.5% carrageenin was injected subcutaneously to right hind paw. Three hours later, volumes of the right hind paws were measured, volumes of the paws before the carrageenin injection were deducted therefrom, and the resulting volumes were defined as a degree of swelling.
The inhibitory rates were calculated from mean degree of swelling of the drug-administered groups and the control group and the result is shown in Table 1.

[2] = system: male mice; conditions: mouse, in vivo, po, 2000 mg/kg

| SMILES | inhibition in vivo at 400 mg/kg [1] | Acute toxicity [2] |
| --- | --- | --- |
| COc1cc2ccccc2cc1-c1nc(N)nc(N)n1 [Example 1, 2,4-diamino-6-(2-methoxy-3-naphthyl)-s-triazine] | 60.3% | no toxicity was observed |
| COc1ccc(-c2nc(N)nc(NC(=O)c3cccnc3)n2)c2ccccc12 [Example 2, 2-amino-4-nicotinoylamino-6-(1-methoxy-4-naphthyl)-s-triazine] | 34.7% | no toxicity was observed |
| Nc1nc(NC(=O)c2cccnc2)nc(-c2cc3ccccc3cc2F)n1 [Example 3, 2-amino-4-nicotinoylamino-6-(2-fluoro-3-naphthyl)-s-triazine] | 56.5% | no toxicity was observed |
| Nc1nc(N)nc(-c2cc3ccccc3cc2OCc2ccccc2)n1 [Example 5, 2,4-diamino-6-(2-benzyloxy-3-naphthyl)-s-triazine] | 30.4% | – |
| Nc1nc(N)nc(-c2ccc(OCc3ccccc3)c3ccccc23)n1 [Example 6, 2,4-diamino-6-(1-benzyloxy-4-naphthyl)-s-triazine] | 30.9% | – |
| COc1ccc2ccccc2c1-c1nc(N)nc(N)n1 [Example 7, 2,4-diamino-6-(2-methoxy-1-naphthyl)-s-triazine] | 44.6% | – |
| COc1ccc(-c2nc(N)nc(N)n2)c2ccccc12 [Example 9, 2,4-diamino-6-(1-methoxy-4-naphthyl)-s-triazine] | 52.4% | no toxicity was observed |
| Nc1nc(N)nc(-c2ccc3cc(OCc4ccccc4)ccc3c2)n1 [Example 10, 2,4-diamino-6-(2-benzyloxy-6-naphthyl)-s-triazine] | 50.3% | – |
| Nc1nc(N)nc(-c2cc3ccccc3cc2F)n1 [Example 11, 2,4-diamino-6-(2-fluoro-3-naphthyl)-s-triazine] | 48.8% | – |
| Nc1nc(N)nc(-c2cc3ccccc3cc2Cl)n1 [Example 12, 2,4-diamino-6-(2-chloro-3-naphthyl)-s-triazine] | 61.3% | no toxicity was observed |
| Nc1nc(N)nc(-c2cc3ccccc3cc2Br)n1 [Example 13, 2,4-diamino-6-(2-bromo-3-naphthyl)-s-triazine] | 49.1% | – |
| Nc1nc(N)nc(-c2ccc(Cl)c3ccccc23)n1 [Example 14, 2,4-diamino-6-(1-chloro-4-naphthyl)-s-triazine] | 42.6% | – |
| Nc1nc(N)nc(-c2ccc(Br)c3ccccc23)n1 [Example 15, 2,4-diamino-6-(1-bromo-4-naphthyl)-s-triazine] | 48.4% | – |
| COc1ccc2cc(-c3nc(N)nc(N)n3)ccc2c1 [Example 16, 2,4-diamino-6-(2-methoxy-6-naphthyl)-s-triazine] | 51.1% | – |
| Nc1nc(NC(=O)c2cccnc2)nc(-c2ccc3ccccc3c2)n1 [Example 18, 2-Amino-4-nicotinoylamino-6-beta-naphthyl-s-triazine] | 24.8% | no toxicity was observed |
| COc1cc2ccccc2cc1-c1nc(N)nc(NC(=O)c2cccnc2)n1 [Example 19, 2-amino-4-nicotinamido-6-(2-methoxy-3-naphthyl)-s-triazine] | 35% | – |
| Nc1nc(NC(=O)c2cccnc2)nc(-c2ccc3cc(OCc4ccccc4)ccc3c2)n1 [Example 23, 2-amino-4-nicotin-amido-6-(6-benzyloxy-2-naphthyl)-s-triazine] | 28.1% | no toxicity was observed |
| Nc1nc(NC(=O)c2cccnc2)nc(-c2ccc(Cl)c3ccccc23)n1 [Example 24, 2-amino-4-nicotinamido-6-(1-chloro-4-naphthyl)-s-triazine] | 25% | no toxicity was observed |
| Nc1nc(NC(=O)c2cccnc2)nc(-c2ccc(Br)c3ccccc23)n1 [Example 25, 2-amino-4-nicotinamidio-6-(1-bromo-4-naphthyl)-s-triazine] | 25.1% | – |
| Nc1nc(NC(=O)c2cccnc2)nc(-c2cc3ccccc3cc2Br)n1 [Example 27, 2-amino-4-nicotinamido-6-(2-bromo-3-naphthyl)-s-triazine] | 33.5% | – |
| Nc1nc(NC(=O)c2cccnc2)nc(-c2ccc3ccccc3c2O)n1 [Example 28, 2-amino-4-nicotinamido-6-(1-hydroxy-2-naphthyl)-s-triazine] | 19.4% | no toxicity was observed |
